# Experiments:
# [1] = tested on: IL-1β induced IL-6 secretion by U373 astrocytoma cells; assay: IL-1β induced IL-6 secretion by U373 astrocytoma cells (ELISA); assay type: cell-based; settings: IL-1β 10 U/ml, 6 hours, inhibitor 1250, 2500 or 5000 nM
# [2] = tested on: IL-1β induced IL-6 secretion by human primary astrocytes; assay: IL-1β induced IL-6 secretion by human primary astrocytes (ELISA); assay type: cell-based; settings: IL-1β 10 U/ml, 6 hours, inhibitor 1250, 2500 or 5000 nM
# Text: IL-1β has been implicated in both the initiation and propagation of neuroinflammatory changes seen in Alzheimer's disease patients. One of the main mechanisms of IL-1β is the induction of interleukin 6 (IL-6) secretion, which propagates the neuroinflammatory response in Alzheimer's disease patients. Using primary human adult astrocytes this inflammatory response as well as modulators (i.e. potential drugs for therapy) can be studied in vitro. […] In the presence of IL-1β (10 U/ml) these cells secrete IL-6 in the culture supernatant, which can be measured by ELISA. […] Cells were incubated with or without IL-1β (10 U/ml) for 6 hours in the presence of different concentration of IRAK1/4 inhibitor I (1250, 2500, or 5000 nM). IL-6 levels (pg/ml) in the culture supernatants were determined by ELISA. Shown are mean levels +/− S.D. of three replicate stimulations.
compound,measurement,setting,value
O=C(Nc1nc2ccccc2n1CCN1CCOCC1)c1cccc([N+](=O)[O-])c1 [IRAK1/4 inhibitor I],IL-6 secretion in culture supernatant,[1],dose-dependently inhibits IL-6 secretion
same,IL-6 secretion in culture supernatant,[1]; listed as IRAK1/4 inhibitor,reduced
same,IL-6 secretion in culture supernatant,[2],dose-dependently inhibits IL-6 secretion
same,IL-6 secretion in culture supernatant,[2]; listed as IRAK1/4 inhibitor,reduced
